Legend:
[1] = target: Recombinant human JAK1 catalytic domain (Homo sapiens (Human), UniProt P23458); assay: JAK1 inhibition assay; assay type: biochemical; conditions: semi-quantitative score
Procedure: (§1) Plates were washed 6 times with 300 μL per well of a 75 mM phosphoric acid solution and the bottom of the plates was sealed. 40 μL/well of Microscint-20 was added, the top of the plates was sealed and readout was performed using the Topcount (Perkin Elmer). Kinase activity was calculated by subtracting counts per minute (cpm) obtained in the presence of a positive control inhibitor (10 μM staurosporine) from cpm obtained in the presence of vehicle. The ability of a test compound to inhibit this activity was determined as: Percentage inhibition=((cpm determined for sample with test compound present−cpm determined for sample with positive control inhibitor) divided by (cpm determined in the presence of vehicle−cpm determined for sample with positive control inhibitor))*100%.
Dose dilution series were prepared for the compounds enabling the testing of dose-response effects in the JAK1 assay and the calculation of the IC50 for each compound.

[2] = target: Recombinant human JAK2 catalytic domain (Homo sapiens (Human), UniProt O60674); assay: JAK2 inhibition assay; assay type: biochemical; conditions: semi-quantitative score
Procedure: as §1, with “After 90 min at 30° C., reactions were stopped by adding of 25 μL/well of 150 mM phosphoric acid. […] Plates” for “Plates”
Dose dilution series were prepared for the compounds enabling the testing of dose-response effects in the JAK2 assay and the calculation of the IC50 for each compound.

Recombinant human JAK1 catalytic domain, sequence (P23458 850-1154): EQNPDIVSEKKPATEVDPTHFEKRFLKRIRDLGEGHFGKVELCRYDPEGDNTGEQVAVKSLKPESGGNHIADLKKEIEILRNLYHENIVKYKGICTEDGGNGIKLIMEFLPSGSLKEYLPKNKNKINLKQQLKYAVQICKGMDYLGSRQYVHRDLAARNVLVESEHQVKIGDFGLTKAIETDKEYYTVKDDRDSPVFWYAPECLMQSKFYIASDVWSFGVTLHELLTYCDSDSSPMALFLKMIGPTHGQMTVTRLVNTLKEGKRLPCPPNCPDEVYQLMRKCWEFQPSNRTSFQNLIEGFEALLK
Recombinant human JAK2 catalytic domain, sequence (O60674 808-1132): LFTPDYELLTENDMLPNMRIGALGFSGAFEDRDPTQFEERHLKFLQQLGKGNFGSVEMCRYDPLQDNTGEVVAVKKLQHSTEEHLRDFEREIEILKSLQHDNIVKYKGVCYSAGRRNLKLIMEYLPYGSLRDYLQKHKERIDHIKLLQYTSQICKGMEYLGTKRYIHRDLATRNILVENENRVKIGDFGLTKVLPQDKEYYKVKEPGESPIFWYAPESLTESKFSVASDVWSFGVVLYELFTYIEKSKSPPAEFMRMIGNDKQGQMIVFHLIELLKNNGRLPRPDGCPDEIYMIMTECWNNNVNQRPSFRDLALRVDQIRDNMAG

O=C(Nc1nc2cccc(-c3ccc(C(=O)N4CCC(C(=O)N5CCOCC5)CC4)cc3)n2n1)C1CC1 [Compound 219, Cyclopropanecarboxylic acid (5-{4-[4-(morpholine-4-carbony)-piperidine-1-carbonyl]-phenyl}-[1,2,4]triazolo[1,5-a]pyridin-2-yl)-amide] was tested, and the IC50 [1] was > 1000 nM and the IC50 [2] was > 1000 nM.
O=C(Nc1nc2cccc(-c3ccc(CNc4cc(C(F)(F)F)ccc4F)cc3)n2n1)C1CC1 [Compound 248, Cyclopropanecarboxylic acid (5-{4-[(2-fluoro-5-trifluoromethyl-phenylamino)-methyl]-phenyl}-[1,2,4]triazolo[1,5-a]pyridin-2-yl)-amide] gave an IC50 [1] of 101 to 500 nM and an IC50 [2] of 101 to 500 nM.
CC(=O)N(C)C1CN(Cc2ccc(-c3cccc4nc(NC(=O)C5CC5)nn34)cc2)C1 [Compound 283, Cyclopropanecarboxylic acid (5-{4-[3-(acetyl-methyl-amino)-azetidin-1-ylmethyl]-phenyl}-[1,2,4]triazolo[1,5-a]pyridin-2-yl)-amide] was tested, and the IC50 [1] was > 1000 nM and the IC50 [2] was > 1000 nM.
Molecule O=C(Nc1nc2cccc(-c3ccc(CN4CCC(O)CC4)cc3)n2n1)C1CC1 [Compound 242, Cyclopropanecarboxylic acid {5-[4-(4-hydroxy-piperidin-1-ylmethyl)-phenyl]-[1,2,4]triazolo[1,5-a]pyridin-2-yl}-amide] has an IC50 [1] of 101 to 500 nM and an IC50 [2] of 501 to 1000 nM.
O=C(Nc1nc2cccc(-c3ccc(C(=O)N4C[C@@H]5C[C@H]4CO5)cc3)n2n1)C1CC1 [Compound 217, Cyclopropanecarboxylic acid {5-[4-((1S,4S)-2-oxa-5-aza-bicyclo[2.2.1]heptane-5-carbonyl)-phenyl]-[1,2,4]triazolo[1,5-a]pyridin-2-yl}-amide] gave an IC50 [1] of 101 to 500 nM and an IC50 [2] of 501 to 1000 nM.
With CN(C)C(=O)C1CN(Cc2ccc(-c3cccc4nc(NC(=O)C5CC5)nn34)cc2)C1 [Compound 299, 1-{4-[2-(Cyclopropanecarbonyl-amino)-[1,2,4]triazolo[1,5-a]pyridin-5-yl]-benzyl}-azetidine-3-carboxylic acid dimethylamide] the IC50 [1] was 501 to 1000 nM and the IC50 [2] was > 1000 nM.
With O=C(Nc1nc2cccc(-c3ccc(CN4CCCC4)cc3)n2n1)C1CC1 [Compound 260, Cyclopropanecarboxylic acid [5-(4-pyrrolidin-1-ylmethyl-phenyl)-[1,2,4]triazolo[1,5-a]pyridin-2-yl]-amide] the IC50 [2] was 101 to 500 nM.
Molecule CCN1C[C@H]2C[C@@H]1CN2Cc1ccc(-c2cccc3nc(NC(=O)C4CC4)nn23)cc1 [Compound 253, Cyclopropanecarboxylic acid {5-[4-((1R,4R)-5-ethyl-2,5-diaza-bicyclo[2.2.1]hept-2-ylmethyl)-phenyl]-[1,2,4]triazolo[1,5-a]pyridin-2-yl}-amide] has an IC50 [2] of 501 to 1000 nM.
COc1ccc(C(N)=O)cc1NCc1ccc(-c2cccc3nc(NC(=O)C4CC4)nn23)cc1 [Compound 255, 3-{4-[2-(Cyclopropanecarbonyl-amino)-[1,2,4]triazolo[1,5-a]pyridin-5-yl]-benzylamino}-4-methoxy-benzamide] showed an IC50 [2] of 501 to 1000 nM.
Work on Cc1ccc(NCc2ccc(-c3cccc4nc(NC(=O)C5CC5)nn34)cc2)c(F)n1 [Compound 256, Cyclopropanecarboxylic acid (5-{4-[(2-fluoro-6-methyl-pyridin-3-ylamino)-methyl]-phenyl}-[1,2,4]triazolo[1,5-a]pyridin-2-yl)-amide] yielded an IC50 [2] of 101 to 500 nM.
Molecule O=C(Nc1nc2cccc(-c3ccc(CN4CCOCC4=O)cc3)n2n1)C1CC1 [Compound 254, Cyclopropanecarboxylic Acid {5-[4-(3-oxo-morpholin-4-ylmethyl)-phenyl]-[1,2,4]triazolo[1,5-a]pyridin-2-yl}-amide] has an IC50 [2] of 501 to 1000 nM.
O=C(Nc1nc2cccc(-c3ccc(CN4CCC(F)(F)C4)cc3)n2n1)C1CC1 [Compound 264, Cyclopropanecarboxylic acid {5-[4-(3,3-difluoro-pyrrolidin-1-ylmethyl)-phenyl]-[1,2,4]triazolo[1,5-a]pyridin-2-yl}-amide] was tested, and the IC50 [2] was 101 to 500 nM.
With NC(=O)c1cccc(OCc2ccc(-c3cccc4nc(NC(=O)C5CC5)nn34)cc2)c1 [Compound 251, 3-{4-[2-(Cyclopropanecarbonyl-amino)-[1,2,4]triazolo[1,5-a]pyridin-5-yl]-benzyloxy}-benzamide] the IC50 [2] was 101 to 500 nM.
In the case of CN(C)C1CCN(Cc2ccc(-c3cccc4nc(NC(=O)C5CC5)nn34)cc2)C1 (stereo not drawn) [Compound 263], the IC50 [2] is reported as 101 to 500 nM.
In the case of CC(=O)N(C)C1CCN(Cc2ccc(-c3cccc4nc(NC(=O)C5CC5)nn34)cc2)C1 (stereo not drawn) [Compound 262, Cyclopropanecarboxylic acid (5-{4-[3-(acetyl-methyl-amino)-pyrrolidin-1-ylmethyl]-phenyl}-[1,2,4]triazolo[1,5-a]pyridin-2-yl)-amide], the IC50 [2] is reported as 101 to 500 nM.
O=C(Nc1nc2cccc(-c3ccc(CNc4ccccc4)cc3)n2n1)C1CC1 [Compound 261, Cyclopropanecarboxylic acid [5-(4-phenylaminomethyl-phenyl)-[1,2,4]triazolo[1,5-a]pyridin-2-yl]-amide] gave an IC50 [2] of 101 to 500 nM.
In the case of N#Cc1ccc(NCc2ccc(-c3cccc4nc(NC(=O)C5CC5)nn34)cc2)c(F)c1 [Compound 258, Cyclopropanecarboxylic acid (5-{4-[(4-cyano-2-fluoro-phenylamino)-methyl]-phenyl}-[1,2,4]triazolo[1,5-a]pyridin-2-yl)-amide], the IC50 [2] is reported as < 100 nM.
O=C(Nc1nc2cccc(-c3ccc(CN4CCN(c5ncccn5)CC4)cc3)n2n1)C1CC1 [Compound 143, N-(5-(4-((4-(pyrimidin-2-yl)piperazin-1-yl)methyl)phenyl)-[1,2,4]triazolo[1,5-a]pyridin-2-yl)cyclopropanecarboxamide] gave an IC50 [1] of 101 to 500 nM.
N#CCN(CCc1ccccc1)C(=O)c1ccc(-c2cccc3nc(NC(=O)C4CC4)nn23)cc1 [Compound 181, N-(cyanomethyl)-4-(2-(cyclopropanecarboxamido)-[1,2,4]triazolo[1,5-a]pyridin-5-yl)-N-phenethylbenzamide] gave an IC50 [1] of 101 to 500 nM.
For O=C(Nc1nc2cccc(-c3ccc(NS(=O)(=O)C4CC4)nc3)n2n1)C1CC1 [Compound 191, N-(5-(6-(cyclopropanesulfonamido)pyridin-3-yl)-[1,2,4]triazolo[1,5-a]pyridin-2-yl)cyclopropanecarboxamide], the IC50 [1] was > 1000 nM.
With CN1CCN(Cc2ccc(-c3cccc4nc(NC(=O)C5CC5)nn34)cc2)CC1 [Compound 130, N-(5-(4-((4-methylpiperazin-1-yl)methyl)phenyl)-[1,2,4]triazolo[1,5-a]pyridin-2-yl)cyclopropanecarboxamide] the IC50 [1] was > 1000 nM.
CN(Cc1ccc(-c2cncnc2)cc1)Cc1ccc(-c2cccc3nc(NC(=O)C4CC4)nn23)cc1 [Compound 161, N-(5-(4-((methyl(4-(pyrimidin-5-yl)benzyl)amino)methyl)phenyl)-[1,2,4]triazolo[1,5-a]pyridin-2-yl)cyclopropanecarboxamide] showed an IC50 [1] of 501 to 1000 nM.
In the case of O=C(Nc1nc2cccc(-c3ccc(NCCc4cccnc4)nc3)n2n1)C1CC1 [Compound 172, N-(5-(6-(2-(pyridin-3-yl)ethylamino)pyridin-3-yl)-[1,2,4]triazolo[1,5-a]pyridin-2-yl)cyclopropanecarboxamide], the IC50 [1] is reported as 501 to 1000 nM.
O=C(Nc1nc2cccc(-c3ccc(NCc4ccccn4)nc3)n2n1)C1CC1 [Compound 171, N-(5-(6-(pyridin-2-ylmethylamino)pyridin-3-yl)-[1,2,4]triazolo[1,5-a]pyridin-2-yl)cyclopropanecarboxamide] was tested, and the IC50 [1] was 101 to 500 nM.
